# Data reported in PubChem BioAssay AID2060897 (Molecular Pharmacology Branch, DTP, NCI, 2025).
# System: 966289-007-R4-J1-PDC complex spheroid viability
# Experiment: Anticancer human tumor 966289-007-R4-J1-PDC patient-derived pancreatic adenocarcinoma cell line growth inhibition [RAS]
# Details: for IC50: curve of first compound; for viability, T/C: stronger effect = lower value
# Text: RAS pathway inhibitors in Combinations in Complex Spheroids
# A high-throughput screen of multi-cell type tumor spheroids was designed to identify active combinations of RAS pathway inhibitors and targeted small molecules. Complex spheroids include a stromal component modeled by human endothelial cells (HUVEC) and fibroblasts modeled by human mesenchymal stem cells (MSCs). The concentration ranges selected for each drug and investigational agent were based upon clinically achievable concentrations if the clinical Cmax of the agent was known.
# Compounds. The drugs and investigational agents: abemaciclib (NSC768073), cobimetinib (NSC768068), divarasib (GDC6063, NSC841802), docetaxel (NSC628503), GDC-1971 (RLY-1971, NSC841576), gemcitabine (NSC613327), inavolisib (NSC800729), ipatasertib (NSC767898), KB-0742 (NSC834161), MRTX-1133 (NSC836407), osimertinib (NSC779217), RMC-4630 (NSC839698), RMC-6236 (NSC851965), RMC-6291 (NSC852671), Ro-3306 (NSC812927), sapanisertib (NSC764658), SN-38 (NSC673596), staurosporine (NSC755774), SY5609 (NSC837396), and tovorafenib (DAY101, NSC766906), were obtained from the National Cancer Institute (NCI) Developmental Therapeutics Program Chemical Repository. The FDA-approved anticancer drug set is available from the NCI Developmental Therapeutics Program. […] The stock solutions were prepared in dimethyl sulfoxide (DMSO, Sigma-Aldrich, St. Louis, MO, cat. D2650) at 800-fold the tested concentration and stored at -70 degrees C prior to their use. All drugs and investigational agents were tested over a range starting from a high concentration at or near the clinical Cmax and decreasing in half-log increments. If the clinical Cmax for an agent had not been determined, the highest concentration tested was 10 microM.
# Cell Culture. All cells were maintained in an incubator at 37 degrees C and 5% CO2 with 95% humidity. The PDC lines were cultured according to standard operating procedures established by the NCI PDMR. All PDCs were thawed and cultured in Matrigel-coated flasks prepared with a working solution of 1X Ham's F-12 nutrient mix, without supplementation (Invitrogen, Waltham, MA, cat. 11765054), 100 U/mL penicillin-streptomycin (Invitrogen, cat. 15140122), and 2.5% Matrigel (Corning Inc., Corning, NY, cat. 354248) for the first three passages. The 362531-283-R-J2-PDC and 782815-120-R-J1-PDC lines were cultured in 6C/Colon 1B media, which includes advanced DMEM/F-12 (Thermo Fisher Scientific, cat. 12634028), 10 mM HEPES (Thermo Fisher Scientific, cat. 15630080), 1X GlutaMAX supplement (Thermo Fisher Scientific, cat. 35050061), 0.1 mg/mL primocin (InvivoGen, San Diego, CA, cat. ant-pm-2), 10% defined fetal bovine serum, heat inactivated (HyClone Laboratories Inc., Logan, UT, cat. SH30070.03HI), 50% L-WRN conditioned media (ATCC, cat. CRL-3276), 1.25 mM N-Acetyl-L-cysteine (Sigma-Aldrich, cat. A9165), 10 mM nicotinamide (Sigma-Aldrich, cat. N0636), 1X B-27 supplement (Thermo Fisher Scientific, cat. 17504044), 1X N-2 supplement (Thermo Fisher Scientific, cat. 17502048), 50 ng/mL human EGF (Thermo Fisher Scientific, cat. PHG0311), and 10 microM Y-27632 dihydrochloride (Tocris Bioscience, cat. 1254). The K12877-001-R-J1-PDC line was cultured in 6I media, which includes all 6C/Colon 1B media plus 10 ng/mL human FGF-10 (PeproTech, cat. 100-26), 1 ng/mL human FGF-2 (PeproTech, cat. 100-18B), 1 µM prostaglandin E2 (Tocris Bioscience, cat. 2296), […] hydrocortisone (Sigma-Aldrich, cat. H4001), and […] bovine insulin (Sigma-Aldrich, cat. I6634). The K86415-001-R-J1-PDC line was cultured in 6D media, which includes all 6C/Colon 1B media components minus the L-WRN conditioned media. The 485176-168-R4-J1-PDC was cultured in PANC media, which includes all 6C/Colon 1B media plus 100 ng/mL human FGF-10 (PeproTech, cat. 100-26), 500 nM SB-431542 (Selleckchem, cat. S1067), and 10 nM gastrin (Tocris Bioscience, cat. 3006). […]
# [1] = second compound 0.000949 µM, first compound 0.00316 µM
# [2] = second compound 0.000949 µM, first compound 0.01 µM
# [3] = second compound 0.000949 µM, first compound 0.0316 µM
# [4] = second compound 0.000949 µM, first compound 0.1 µM
# [5] = second compound 0.000949 µM, first compound 0.316 µM
# [6] = second compound 0.000949 µM, first compound 1 µM
# [7] = second compound 0.003 µM, first compound 0.00316 µM
# [8] = second compound 0.003 µM, first compound 0.01 µM
# [9] = second compound 0.003 µM, first compound 0.0316 µM
# [10] = second compound 0.003 µM, first compound 0.1 µM
# [11] = second compound 0.003 µM, first compound 0.316 µM
# [12] = second compound 0.003 µM, first compound 1 µM
# [13] = second compound 0.00949 µM, first compound 0.00316 µM
# [14] = second compound 0.00949 µM, first compound 0.01 µM
# [15] = second compound 0.00949 µM, first compound 0.0316 µM
# [16] = second compound 0.00949 µM, first compound 0.1 µM
# [17] = second compound 0.00949 µM, first compound 0.316 µM
# [18] = second compound 0.00949 µM, first compound 1 µM
# [19] = second compound 0.03 µM, first compound 0.00316 µM
# [20] = second compound 0.03 µM, first compound 0.01 µM
# [21] = second compound 0.03 µM, first compound 0.0316 µM
# [22] = second compound 0.03 µM, first compound 0.1 µM
# [23] = second compound 0.03 µM, first compound 0.316 µM
# [24] = second compound 0.03 µM, first compound 1 µM
# [25] = second compound 0.0949 µM, first compound 0.00316 µM
# [26] = second compound 0.0949 µM, first compound 0.01 µM
# [27] = second compound 0.0949 µM, first compound 0.0316 µM
# [28] = second compound 0.0949 µM, first compound 0.1 µM
# [29] = second compound 0.0949 µM, first compound 0.316 µM
# [30] = second compound 0.0949 µM, first compound 1 µM
# [31] = second compound 0.3 µM, first compound 0.00316 µM
# [32] = second compound 0.3 µM, first compound 0.01 µM
# [33] = second compound 0.3 µM, first compound 0.0316 µM
# [34] = second compound 0.3 µM, first compound 0.1 µM
# [35] = second compound 0.3 µM, first compound 0.316 µM
# [36] = second compound 0.3 µM, first compound 1 µM
# 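Further: spheroids exposed to agents for one week before readout.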
# 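Wherever viability, T/C is given: percent viability relative to DMSO vehicle control wells as 100%.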
smiles,measurement,setting,value
Nc1ccn(C2OC(CO)C(O)C2(F)F)c(=O)n1 (centres undefined) + CCn1c(-c2cc(N3CCN(C)CC3)cnc2C(C)OC)c2c3cc(ccc31)-c1csc(n1)CC(NC(=O)C1CC1C)C(=O)N1CCCC(N1)C(=O)OCC(C)(C)C2,IC50,second compound 0.000949 µM,6.04 nM
same,IC50,second compound 0.003 µM,6.3 nM
same,IC50,second compound 0.00949 µM,6.2 nM
same,IC50,second compound 0.03 µM,6.34 nM
same,IC50,second compound 0.0949 µM,6.96 nM
same,IC50,second compound 0.3 µM,12.5 nM
same,"viability, T/C",[1],97.8%
same,"viability, T/C",[2],12.9%
same,"viability, T/C",[3],1.26%
same,"viability, T/C",[4],0.95%
same,"viability, T/C",[5],1.14%
same,"viability, T/C",[6],1.37%
same,"viability, T/C",[7],102%
same,"viability, T/C",[8],14.8%
same,"viability, T/C",[9],1.26%
same,"viability, T/C",[10],1.21%
same,"viability, T/C",[11],1.3%
same,"viability, T/C",[12],1.36%
same,"viability, T/C",[13],101%
same,"viability, T/C",[14],13.7%
same,"viability, T/C",[15],1.25%
same,"viability, T/C",[16],1.19%
same,"viability, T/C",[17],1.09%
same,"viability, T/C",[18],1.04%
same,"viability, T/C",[19],97%
same,"viability, T/C",[20],19.3%
same,"viability, T/C",[21],1.26%
same,"viability, T/C",[22],1.2%
same,"viability, T/C",[23],1.06%
same,"viability, T/C",[24],1.12%
same,"viability, T/C",[25],97.2%
same,"viability, T/C",[26],28.2%
same,"viability, T/C",[27],1.31%
same,"viability, T/C",[28],1.32%
same,"viability, T/C",[29],1.4%
same,"viability, T/C",[30],1.29%
same,"viability, T/C",[31],97.6%
same,"viability, T/C",[32],61.5%
same,"viability, T/C",[33],2.02%
same,"viability, T/C",[34],1.27%
same,"viability, T/C",[35],1.51%
same,"viability, T/C",[36],1.21%
Nc1ccn(C2OC(CO)C(O)C2(F)F)c(=O)n1 (centres undefined) + CCn1c(-c2cccnc2C(C)OC)c2c3cc(ccc31)N1CCOC(CC(NC(=O)C(C(C)C)N(C)C(=O)C3(F)CCN(C(=O)C#CC(C)(C)N(C)C)CC3)C(=O)N3CCCC(N3)C(=O)OCC(C)(C)C2)C1,IC50,second compound 0.000949 µM,7.01 nM
same,IC50,second compound 0.003 µM,5.6 nM
same,IC50,second compound 0.00949 µM,4.48 nM
same,IC50,second compound 0.03 µM,4.23 nM
same,IC50,second compound 0.0949 µM,4.66 nM
same,IC50,second compound 0.3 µM,5.27 nM
same,"viability, T/C",[1],119%
same,"viability, T/C",[2],18.9%
same,"viability, T/C",[3],1.45%
same,"viability, T/C",[4],0.78%
same,"viability, T/C",[5],0.73%
same,"viability, T/C",[6],0.9%
same,"viability, T/C",[7],87.3%
same,"viability, T/C",[8],12.3%
same,"viability, T/C",[9],1.03%
same,"viability, T/C",[10],0.84%
same,"viability, T/C",[11],1.07%
same,"viability, T/C",[12],1.18%
same,"viability, T/C",[13],67.6%
same,"viability, T/C",[14],9.69%
same,"viability, T/C",[15],0.94%
same,"viability, T/C",[16],0.85%
same,"viability, T/C",[17],0.87%
same,"viability, T/C",[18],1.1%
same,"viability, T/C",[19],64%
same,"viability, T/C",[20],8.78%
same,"viability, T/C",[21],0.83%
same,"viability, T/C",[22],1.03%
same,"viability, T/C",[23],1.23%
same,"viability, T/C",[24],0.98%
same,"viability, T/C",[25],72.2%
same,"viability, T/C",[26],6.25%
same,"viability, T/C",[27],0.85%
same,"viability, T/C",[28],0.82%
same,"viability, T/C",[29],1.11%
same,"viability, T/C",[30],1.25%
same,"viability, T/C",[31],86.9%
same,"viability, T/C",[32],3.9%
same,"viability, T/C",[33],0.92%
same,"viability, T/C",[34],0.98%
same,"viability, T/C",[35],0.91%
same,"viability, T/C",[36],1.22%
